# Key:
# Format in all cases: in vivo
# [1] = tested on: ABUTILON THEOPHRASTI, MEDIC.; assay: Postemergence herbicidal evaluation, ABUTH (Velvetleaf); details: for ABUTH, herbicide rating (0-9): rated four to five weeks after treatment, averaged
# How it was run: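 Velvetleaf (Abutilon theophrasti) seedlings were raised in jiffy flats for about two weeks and then sprayed postemergence. The test compound was dispersed in a 50/50 acetone/water mixture containing 0.5% TWEEN®20 and applied through a nozzle operating at 40 psi. Plants were kept on greenhouse benches and rated 0-9 four to five weeks after treatment.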
# [2] = tested on: CHENOPODIUM ALBUM, L.; assay: Preemergence herbicidal evaluation, CHEAL (Lambsquarters, Common); details: for CHEAL rating: four to five weeks after treatment
# How it was run: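 Seeds mixed with potting soil were planted on about one inch of soil in cups, then sprayed with aqueous acetone solution of test compound at about 0.125 to 0.50 kg per hectare. Plants grown under greenhouse conditions; visual rating on a 0-9 scale versus untreated control at 4-5 weeks.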
# [3] = tested on: IPOMOEA SPP.; assay: Postemergence herbicidal evaluation, IPOSS (Morningglory spp.); details: for IPOSS, herbicide rating (0-9): rated four to five weeks after treatment, averaged
# How it was run: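 Seedlings of morningglory (Ipomoea spp.) were raised in jiffy flats for roughly two weeks. They were then sprayed postemergence through a nozzle at 40 psi with test compound dispersed in 50/50 acetone/water containing 0.5% TWEEN®20 surfactant. Plants were kept on greenhouse benches under standard care and visually rated 0-9 against controls four to five weeks after treatment.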
# [4] = tested on: ZEA MAYS L.; assay: Postemergence herbicidal evaluation, ZEAMX (Corn, Field); details: for ZEAMX, herbicide rating (0-9): crop, rated four to five weeks after treatment, averaged
# How it was run: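 Corn seedlings were raised in jiffy flats for roughly two weeks, then sprayed postemergence with the test material dispersed in 50/50 acetone/water containing 0.5% TWEEN®20 surfactant, using a nozzle at 40 psi. Plants were kept on greenhouse benches under standard care and visually rated on a 0-9 scale four to five weeks after treatment.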
# [5] = tested on: ECHINOCHLOA CRUS-GALLI, (L) BEAU; assay: Postemergence herbicidal evaluation, ECHCG (Barnyardgrass); design: key to ECHCG rating / Herbicidal effect rating, ECHCG / ECHCG: 0-9 visual rating scale vs untreated control
# How it was run: (§1)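 Seedlings about two weeks old were sprayed with compound in 50/50 acetone/water containing 0.5% Tween 20 at about 0.125-0.500 kg/ha and kept in the greenhouse. Visual injury was rated on a 0-9 scale versus control 4-5 weeks after treatment; repeat tests were averaged.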
# [6] = tested on: TRITICUM AESTIVUM, CV. APOLLO; assay: Postemergence herbicidal evaluation, TRZAWO (Wheat, Winter, CV. APOLLO)
# How it was run: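 Wheat seedlings, raised in jiffy flats for roughly two weeks, were sprayed postemergence with test compound dispersed in a 50/50 acetone/water mixture containing 0.5% TWEEN®20 surfactant, delivered through a nozzle at 40 psi. Plants were then kept on greenhouse benches under conventional care. Four to five weeks after treatment they were rated visually on a 0-9 scale against an untreated control, and ratings from repeated tests were averaged.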
# [7] = tested on: SETARIA VIRIDIS, (L) BEAU; assay: Postemergence herbicidal evaluation, SETVI (Foxtail, Green); design: key to SETVI rating / Herbicidal effect rating, SETVI / SETVI: 0-9 visual rating scale vs untreated control; details: for SETVI, herbicide rating (0-9): rated four to five weeks after treatment, averaged
# How it was run: as §1
# [8] = tested on: GALIUM APARINE; assay: Postemergence herbicidal evaluation, GALAP (Galium); design: key to GALAP rating / Herbicidal effect rating, GALAP / GALAP: 0-9 visual rating scale vs untreated control
# How it was run: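 Galium (GALAP) seedlings were raised in jiffy flats for about two weeks, then sprayed with test compounds dispersed in 50/50 acetone/water containing 0.5% TWEEN®20, delivered through a nozzle at 40 psi. Plants were kept on greenhouse benches and visually rated 0-9 against a control four to five weeks later; repeat tests were averaged.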
# [9] = tested on: CASSIA OBTUSIFOLIA, L.; assay: Postemergence herbicidal evaluation, CASOB (Sicklepod); design: key to CASOB rating / Herbicidal effect rating, CASOB / CASOB: 0-9 visual rating scale vs untreated control
# How it was run: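 Two-week-old seedlings sprayed with compound in 50/50 acetone/water plus 0.5% TWEEN 20 at about 0.125–0.500 kg/ha via nozzle at 40 psi. Kept in greenhouse; rated visually 4–5 weeks after treatment on a 0–9 scale versus untreated control, averaging repeat tests.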
# [10] = tested on: AMBROSIA ARTEMISIIFOLIA, L.; assay: Postemergence herbicidal evaluation, AMBEL (Ragweed, Common)
# How it was run: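 Common ragweed (Ambrosia artemisiifolia) seedlings were raised in jiffy flats for roughly two weeks, then sprayed postemergence through a nozzle at 40 psi with the test compound dispersed in 50/50 acetone/water carrying 0.5% TWEEN®20. The plants were kept on greenhouse benches under conventional care. Four to five weeks later, injury was rated visually on a 0-9 scale, and repeat tests were averaged.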
# [11] = tested on: ORYZA SATIVA, L. TEBONNET; assay: Rice tolerance to post-transplant applications under flooded paddy conditions, ORYSAT (Rice, Tebonnet); details: for ORYSAT herbicidal rating (rice tolerance): rated three to four weeks after treatment; for ORYSAT: post-transplanted rice;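 for ORYSAT herbicidal rating (rice tolerance): applied to flooded soil surface three days after transplanting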
# How it was run: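 Two ten-day-old Tebonnet rice seedlings transplanted into silt loam, flooded 1.5–3 cm; three days later the water surface treated with compounds in acetone/water at about 0.5, 0.25, 0.125 and 0.063 kg/ha. Visual 0–9 injury rating versus control after 3–4 weeks in greenhouse.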
structure (smiles),measurement,setting,value
"COC(=O)Cn1c(=O)n(C)c(=O)n(-c2cc(Oc3c(F)cc(C(F)(F)F)cc3Cl)ccc2F)c1=O [Compound 4, Methyl 3-{5-[(2-chloro-α,α,α,6-tetrafluoro-p-tolyl)oxy]-2-fluorophenyl}tetrahydro-5-methyl-2,4,6-trioxo-s-triazine-1(2H)-acetate]","Herbicidal effect rating, ABUTH",[1]; 0.031 kg/ha,8.9
same,"Herbicidal effect rating, ABUTH",[1]; 0.063 kg/ha,8.9
same,"Herbicidal effect rating, ABUTH",[1]; 0.125 kg/ha,9.0
same,"Herbicidal effect rating, ABUTH",[1]; 0.250 kg/ha,9.0
same,"ABUTH, herbicide rating (0-9)",[1]; Rate 0.125 kg/ha,9.0
same,"ABUTH, herbicide rating (0-9)",[1]; Rate 0.250 kg/ha,9.0
same,"ABUTH, herbicide rating (0-9)",[1]; Rate 0.500 kg/ha,9.0
same,CHEAL rating,[2]; Rate 0.125 kg/ha,9.0
same,CHEAL rating,[2]; Rate 0.250 kg/ha,9.0
same,CHEAL rating,[2]; Rate 0.500 kg/ha,9.0
same,"Herbicidal effect rating, IPOSS",[3]; 0.031 kg/ha,8.9
same,"Herbicidal effect rating, IPOSS",[3]; 0.063 kg/ha,8.9
same,"Herbicidal effect rating, IPOSS",[3]; 0.125 kg/ha,9.0
same,"Herbicidal effect rating, IPOSS",[3]; 0.250 kg/ha,9.0
same,"IPOSS, herbicide rating (0-9)",[3]; Rate 0.125 kg/ha,9.0
same,"IPOSS, herbicide rating (0-9)",[3]; Rate 0.250 kg/ha,9.0
same,"IPOSS, herbicide rating (0-9)",[3]; Rate 0.500 kg/ha,9.0
same,"Herbicidal effect rating, ZEAMX",[4]; 0.031 kg/ha,8.1
same,"Herbicidal effect rating, ZEAMX",[4]; 0.063 kg/ha,8.7
same,"Herbicidal effect rating, ZEAMX",[4]; 0.125 kg/ha,8.9
same,"Herbicidal effect rating, ZEAMX",[4]; 0.250 kg/ha,8.9
same,"ZEAMX, herbicide rating (0-9)",[4]; Rate 0.125 kg/ha,8.8
same,"ZEAMX, herbicide rating (0-9)",[4]; Rate 0.250 kg/ha,8.8
same,"ZEAMX, herbicide rating (0-9)",[4]; Rate 0.500 kg/ha,8.8
same,"Herbicidal effect rating, ECHCG",[5]; 0.031 kg/ha,3.8
same,"Herbicidal effect rating, ECHCG",[5]; 0.063 kg/ha,6.0
same,"Herbicidal effect rating, ECHCG",[5]; 0.125 kg/ha,8.2
same,"Herbicidal effect rating, ECHCG",[5]; 0.250 kg/ha,8.9
same,"Herbicidal effect rating, TRZAWO",[6]; 0.031 kg/ha,6.3
same,"Herbicidal effect rating, TRZAWO",[6]; 0.063 kg/ha,7.3
same,"Herbicidal effect rating, TRZAWO",[6]; 0.125 kg/ha,8.1
same,"Herbicidal effect rating, TRZAWO",[6]; 0.250 kg/ha,8.2
same,"Herbicidal effect rating, SETVI",[7]; 0.031 kg/ha,6.9
same,"Herbicidal effect rating, SETVI",[7]; 0.063 kg/ha,8.6
same,"Herbicidal effect rating, SETVI",[7]; 0.125 kg/ha,9.0
same,"Herbicidal effect rating, SETVI",[7]; 0.250 kg/ha,9.0
same,"SETVI, herbicide rating (0-9)",[7]; Rate 0.125 kg/ha,9.0
same,"SETVI, herbicide rating (0-9)",[7]; Rate 0.250 kg/ha,9.0
same,"SETVI, herbicide rating (0-9)",[7]; Rate 0.500 kg/ha,9.0
same,"Herbicidal effect rating, GALAP",[8]; 0.031 kg/ha,7.3
same,"Herbicidal effect rating, GALAP",[8]; 0.063 kg/ha,8.4
same,"Herbicidal effect rating, GALAP",[8]; 0.125 kg/ha,8.8
same,"Herbicidal effect rating, GALAP",[8]; 0.250 kg/ha,8.1
same,"Herbicidal effect rating, CASOB",[9]; 0.031 kg/ha,8.6
same,"Herbicidal effect rating, CASOB",[9]; 0.063 kg/ha,8.4
same,"Herbicidal effect rating, CASOB",[9]; 0.125 kg/ha,9.0
same,"Herbicidal effect rating, CASOB",[9]; 0.250 kg/ha,8.4
same,"Herbicidal effect rating, AMBEL",[10]; 0.031 kg/ha,7.2
same,"Herbicidal effect rating, AMBEL",[10]; 0.063 kg/ha,8.0
same,"Herbicidal effect rating, AMBEL",[10]; 0.125 kg/ha,8.5
same,"Herbicidal effect rating, AMBEL",[10]; 0.250 kg/ha,8.9
same,ORYSAT herbicidal rating (rice tolerance),"[11]; post-transplant rice, Rate 0.063 kg/ha",2.0
same,ORYSAT herbicidal rating (rice tolerance),"[11]; post-transplant rice, Rate 0.125 kg/ha",3.2
same,ORYSAT herbicidal rating (rice tolerance),"[11]; post-transplant rice, Rate 0.250 kg/ha",3.8
same,ORYSAT herbicidal rating (rice tolerance),"[11]; post-transplant rice, Rate 0.500 kg/ha",4.7
same,ORYSAT,[11]; Rate 0.031 kg/ha,1.6
same,ORYSAT,[11]; Rate 0.063 kg/ha,2.1
same,ORYSAT,[11]; Rate 0.125 kg/ha,3.6
same,ORYSAT,[11]; Rate 0.250 kg/ha,3.7
"COC(=O)Cn1c(=O)n(C)c(=O)n(-c2cc(Oc3ccccn3)ccc2[N+](=O)[O-])c1=O [Compound 38, Methyl tetrahydro-3-methyl-5-[2-nitro-5-(2-pyridyloxy)phenyl]-2,4,6-trioxo-s-triazine-1(2H)-acetate]",ABUTH rating,[1]; Rate 0.500 kg/ha,0.0
same,CHEAL herbicidal rating,"[2]; Rate 0.500 kg/ha, rated four to five weeks after treatment",0.0
same,IPOSS rating,[3]; Rate 0.500 kg/ha,0.0
same,ZEAMX rating,[4]; Rate 0.500 kg/ha,0.0
same,ECHCG rating,[5]; Rate 0.500 kg/ha,0.0
same,TRZAWO rating,[6]; Rate 0.500 kg/ha,0.0
same,SETVI rating,[7]; Rate 0.500 kg/ha,0.0
same,GALAP rating,[8]; Rate 0.500 kg/ha,0.0
same,CASOB rating,[9]; Rate 0.500 kg/ha,0.0
same,AMBEL rating,[10]; Rate 0.500 kg/ha,0.0
same,"Herbicidal effect rating, ORYSAT","[11]; 0.500 kg/ha, post-transplant rice, 3-4 weeks after treatment",0.0

# Source: patent EP0745595A1, “3-(3-Aryloxyphenyl)-1-(substituted methyl)-s-triazine-2,4,6-oxo or thiotrione herbicidal agents” (American Cyanamid Company, priority 1995, dated 1996)
